According to patent US7803407B2 (priority 1997, dated 2010):

Experiments:
Assay in all cases: Laboratory disinfection efficacy test (suspension, pour plate count)
Assay type in all cases: cell-based
[1] = tested on: Salmonella cholerasuis strain ATCC 10708
Description: (§1) The inoculum level for each of the test microorganisms were established in a similar manner. Test strains were grown individually at 35° C. for 24 hr. The cells were harvested by centrifugation at 10,000×g for 10 minutes and washed twice with Butterfield's Phosphate Buffer (BPB of pH 7.2). The cells were resuspended in the Butterfield's Phosphate Buffer to obtain a cell suspension of approximately 1.0×10^8 CFU/mL for each microorganism (target inoculum levels were approx. 10^6 in the final test solution).
(§2) The test microorganisms considered were tested at uniform sampling intervals, The sampling intervals selected were (a) 15 seconds (ethanol trials only), (b) 1 minute, (c) 5 minutes, (d) 10 minutes and (e) 30 minutes.
(§3) Five compounds were tested against the test microorganisms.
(§4) The test microorganisms were tested in accordance with the following test procedures. Duplicate trials were conducted for each test variable. Ninety nine volumes of the test solutions in 250 mL Erlenmeyer flasks were prepared from sterilized deionized water. The solutions were inoculated separately with one mL of 24 hour culture from each of the test strains to yield a flask inoculum level of approximately 1.0×10^6 CFU/mL.
(§5) Solutions were mixed well and kept under constant agitation. Samples of 1.0 mL were removed at the above specified time intervals and placed into 9.0 mL Neutralization Broth media (Difco) to yield an initial dilution of 1:10. All samples were serially diluted in the Butterfield's Phosphate Buffer solution (BPB) and plated onto Tryptic Soy Agar (TSA) in duplicate using the pour plate technique. Percent reductions were calculated for each test solution against each test strain.
(§6) For all tests which utilized either copper or silver ions, concentrated solutions were prepared 24 hours prior to the beginning of the study. Solutions were filtered and determinations for ion content were made. From these stock solutions (copper ion concentration as measured by ICAP and silver ion concentration as measured by Atomic Absorption analysis), final working solutions were made. The target ion concentration for both copper and silver was 5.0 mg/L.

[2] = tested on: Staphylococcus aureus strain ATCC 6538; settings: 15 seconds (ethanol trials) or 1 minute to 30 minutes
Description: as §1, §2, §3, §4, §5, §6

[3] = tested on: pseudomonas aeruginosa strain ATCC 15442; settings: 15 seconds (ethanol trials) or 1 minute to 30 minutes
Description: as §1, §2, §3, §4, §5, §6

O=C(O)CC(O)(CC(=O)O)C(=O)O [citric acid]
log10 reduction ([1]; 30 minute time period): 1.0 log10
disinfection effectiveness [2]: Neither citric acid nor copper:citric acid was effective
disinfection effectiveness [3]: no significant reduction

CCO [20% ethanol, ethanol]
log10 reduction ([1]; 1 minute contact): ~1.0 log10
disinfection ([1]; after 30 minutes of contact time): Near complete disinfection
disinfection effectiveness ([1]; all time periods up to 30 minutes): slow, but complete disinfection
disinfection effectiveness [2]: No significant reduction
disinfection effectiveness [3]: no significant reduction
